The text below walks through data of US7378384B2, “WT1 substitution peptides” (International Institute of Cancer Immunology, Inc., priority 2002, dated 2008).

Assay [1] relates to HLA-A2402/K^b transgenic mice. Nature of the assay: In vivo immunogenicity (CTL-inducing activity): immunization of HLA-A2402/K^b transgenic mice, 51Cr release assay of in vitro restimulated splenocytes. Set-up: species or system mouse. The procedure:
In vivo immunogenicity of each antigen peptide was evaluated using the HLA-A2402/K^b transgenic mice. The preparation of the transgenic mice and the determination of in vivo immunogenicity were conducted according to WO 02/47474, and Int J. Cancer. 100, 565-570 (2002) that describe them in detail.
The non-substituted type peptide and the substituted type peptides as described above were synthesized using Fmoc method. The peptides synthesized were each adjusted to 40 mg/ml in DMSO, and each diluted with a sterilized water to 2.4 mg/ml. They were then mixed with a 1.27 parts of Freund's incomplete adjuvant (ISA51) using a glass syringe to prepare a water-in-oil emulsion. The resultant emulsion (200 μl) was injected into the HLA-A2402/K^b transgenic mouse subcutaneously in the base of the tail for immunization.
Seven days after the immunization, the spleen was removed and grounded on the frosted part of glass slide, and splenocytes were recovered and prepared. A portion of the splenocytes undergone hemolysis treatment with an ACK buffer (0.15 M NH4Cl, 10 mM KHCO3, 0.1 mM EDTA, pH 7.2-7.4) was pulsed with the above-mentioned peptide compositions at 100 μg/ml for 1 hour, and seeded into a 24-well plate at 7×10^5/well. Simultaneously, splenocytes not pulsed with any peptide (7×10^6/well) were added together, and stimulated in vitro and incubated at 37° C. for 5 to 6 days. The in vitro stimulation was carried out in RPMI1640 medium supplemented with 10% FCS, 10 mM HEPES, 20 mM L-glutamine, 1 mM sodium pyruvate, 1 mM MEM nonessential amino acids, 1% MEM vitamin and 55 μM 2-mercaptoethanol.
The test for cytotoxic activity was conducted according to the conventional manner. EL4-A2402/K^b cells obtained by transforming EL-4 cells (DAINIPPON PHARMACEUTICAL CO., LTD., Catalogue No. 06-039) with an expression vector encoding HLA-A2402/K^b, and the EL4-A2402/K^b cells pulsed with peptide A, B, C, D, E, or F were used as target cells (T). The EL4-A2402/K^b cells were prepared in a similar manner to the preparation of Jurkat-A2402/K^b cells described in WO 02/47474.
These cells were labeled with ^51Cr (3.7 MBq/10^6 cells) and pulsed with the peptide at 100 μg/ ml for an hour (The labeling was carried out over 2 hours, and 1 hour after the initiation of labeling, the peptide was added). Splenocytes in vitro stimulated and incubated were used as effector cells (E). They were combined with the target cells at various ratios, and ^51Cr release assay (J. Immunol., 1997; 159: 4753) was conducted to determine the cytotoxic activity of the effector cells. […]
The substituted type peptides were synthesized using Fmoc method. The peptides synthesized were each adjusted to 40 mg/ml in DMSO, and each diluted with a physiological saline to 2.4 mg/ml. They were then mixed with a 1.27 parts of Freund's incomplete adjuvant (ISA51) using a glass syringe to prepare a water-in-oil emulsion. The resultant emulsion (200 μl) was injected into the HLA-A2402/K^b transgenic mouse subcutaneously in the base of the tail for immunization.
The test for cytotoxic activity was conducted according to the conventional manner. EL4-A2402/K^b cells obtained by transforming EL-4 cells with an expression vector encoding HLA-A2402/K^b, and the EL4-A2402/K^b cells pulsed with peptide K, L, or M were used as target cells (T).
These cells were labeled with ^51Cr (3.7 MBq/10^6 cells) and pulsed with the peptide at 100 μg/ml for an hour (The labeling was carried out over 2 hours, and 1 hour after the initiation of labeling, the peptide was added). Splenocytes in vitro stimulated and incubated were used as effector cells (E). They were combined with the target cells at various ratios, and ^51Cr release assay (J. Immunol., 1997; 159: 4753) was conducted to determine the cytotoxic activity of the effector cells.

For another assay, the system named is HLA-A24 antigen. Particulars: compared with the natural type peptide WT1235-243; cited from earlier work.
For another assay, the system named is CTLs. Particulars: Clin. Cancer. Res. 8: 2626, 2002, and WO 00/06602; cited from earlier work.
Setting [2] is: Example 4, peptide in saline/ISA51 emulsion s.c., target EL4-A2402/K^b cells pulsed with the peptide at 100 μg/ml vs not pulsed.
Setting [3] is: Example 1, s.c. immunization with peptide in ISA51 water-in-oil emulsion, splenocytes 7 days after, target EL4-A2402/K^b cells pulsed with the peptide at 100 μg/ml vs not pulsed.
The mark [4] stands for this setting: Example 3, peptide with KLH in ISA51 emulsion s.c., target EL4-A2402/K^b cells pulsed with the peptide at 20 μg/ml vs not pulsed.

“Also recorded” adds a separate entry of the source. Non-standard residues stand in square brackets, D forms with d. No end group written: not given here. Cit = NC(=O)NCCC[C@H](N)C(=O)O; Orn = NCCC[C@H](N)C(=O)O; Abu = CC[C@H](N)C(=O)O

For the substance FYTWNQMNL [peptide L], in assay [1] (setting [2]), the “immunogenicity (activity to induce CTLs); cytotoxic activity (% Specific Lysis) vs E/T ratio” value (“immunogenicity … (% Specific Lysis) vs E/T ratio” for short) was “have an immunogenicity (an activity to induce CTLs); also recorded: specific CTLs were induced”.
As for AMTWNQMNL [peptide H], the “immunogenicity … (% Specific Lysis) vs E/T ratio” value in assay [1] (Example 3, peptide with KLH in ISA51 emulsion s.c., target Jurkat-A2402/K^b cells pulsed with the peptide at 20 μg/ml vs not pulsed) is given as “have an immunogenicity (an activity to induce CTLs); also recorded: specific CTLs were induced”.
As to NYTWNQMNL [peptide M], in assay [1] (setting [2]), the “immunogenicity … (% Specific Lysis) vs E/T ratio” value is reported as “have an immunogenicity (an activity to induce CTLs); also recorded: specific CTLs were induced”.
Take AYTWNQMNL [peptide C]: the “immunogenicity … (% Specific Lysis) vs E/T ratio” value in assay [1] (setting [3]) is listed as “specific CTLs were induced”.
The same measure, in the same setting: the same measure for SYTWNQMNL [peptide B]: “specific CTLs were induced”.
For the substance “CYTWNQMNL [peptide A, reference compound]”, the “binding activity to the HLA-A24 antigen” value with HLA-A24 antigen is listed as “higher binding activity to the HLA-A24 antigen than the natural type peptide”. Also, in assay [1] (setting [3]), the “immunogenicity … (% Specific Lysis) vs E/T ratio” value is given as “specific CTLs were induced”.
LYTWNQMNL [peptide K]: the “immunogenicity … (% Specific Lysis) vs E/T ratio” value in assay [1] (setting [2]) was “have an immunogenicity (an activity to induce CTLs); also recorded: specific CTLs were induced”.
For CMTWNQMNL [WT1235-243], the “activity to induce CTLs in HLA-A24-restricted manner” value in the assay with CTLs is “having an activity to induce CTLs in HLA-A24-restricted manner”.
As for “Orn Tyr Thr Trp Asn Gln Met Asn Leu ([Orn]YTWNQMNL) [peptide I]”, in assay [1] (setting [4]), the “immunogenicity … (% Specific Lysis) vs E/T ratio” value is “have an immunogenicity (an activity to induce CTLs); also recorded: specific CTLs were induced”.
For RYTWNQMNL [peptide E], the “immunogenicity … (% Specific Lysis) vs E/T ratio” value in assay [1] (setting [3]) is listed as “specific CTLs were induced”.
On the same count and under the same terms, to KYTWNQMNL [peptide F] belongs “specific CTLs were induced”.
Consider “Cit Tyr Thr Trp Asn Gln Met Asn Leu ([Cit]YTWNQMNL) [peptide J]”, for which, in assay [1] (setting [4]), the “immunogenicity … (% Specific Lysis) vs E/T ratio” value is “have an immunogenicity (an activity to induce CTLs); also recorded: specific CTLs were induced”.
Still for that read-out and setting: to SMTWNQMNL [peptide G] belongs “have an immunogenicity (an activity to induce CTLs); also recorded: specific CTLs were induced”.
Turning to “Abu-Tyr-Thr-Trp-Asn-Gln-Met-Asn-Leu ([Abu]YTWNQMNL) [peptide D]”, the “immunogenicity … (% Specific Lysis) vs E/T ratio” value in assay [1] (setting [3]) is on record as “specific CTLs were induced”.
